Values of other authors as cited in patent publication US20220280449A1, “CURCUMINOID COMPOSITIONS” (priority 2018, published 2022).

Tested on: Caco-2 cells

COc1cc(/C=C/C(=O)CC(=O)/C=C/c2ccc(O)c(OC)c2)ccc1O [curcumin]
predicted absorption in humans (from correlation of Caco-2 Papp with human absorption): 0-20%
apparent permeability coefficient (Papp value) (in vitro human intestinal cell model (Caco-2)): 1e-07 cm/s
